Consider two compounds from PMC4452589, “An evaluation of the brain distribution of [^11C]GSK1034702, a muscarinic-1 (M1) positive allosteric modulator in the living human brain using positron emission tomography” (EJNMMI Research, 2014).

The nature of series [1]: plasma free fraction by ultrafiltration, human arterial plasma. The format is in vitro ADME. On the procedure:
(§1) Arterial blood radioactivity was measured continuously for the first 15 min after [^11C]GSK1034702 injection, using a continuous sampling system (ABSS Allogg, Mariefred, Sweden). In addition, 12 serial discrete blood samples were obtained (at 5, 10, 15, 20, 25, 30, 40, 50, 60, 70, 80 and 90 min post injection), to determine whole blood and plasma activity. Seven samples (at 5, 10, 20, 30, 50, 70 and 90 min) were further processed by HPLC to measure the fraction of plasma activity representing unmetabolised GSK1034702. For all human studies, the non-protein-bound fraction of [^11C]GSK1034702 in arterial plasma (fP) was assessed by ultrafiltration for the blood sample taken at the beginning of the scan.

A short description of series [2]: brain tissue binding by equilibrium dialysis, mouse. The series is classed as in vitro ADME. The note with it: equilibrium dialysis 5 h. The method, then: (§2) The in vitro brain and plasma protein binding of GSK1034702 across a range of species was determined using equilibrium dialysis as described previously.
On the technique in general: Equilibrium dialysis compares concentrations on both sides of a semipermeable membrane.

Series [3] in a line: plasma protein binding by equilibrium dialysis, monkey. The format is in vitro ADME. To be noted: equilibrium dialysis 5 h. On the procedure:
as §2

The nature of series [4]: plasma protein binding by equilibrium dialysis, dog. The format is in vitro ADME. The note with it: equilibrium dialysis 5 h. On the procedure:
as §2

For the next series, the system named is P-glycoprotein (PGP). Further details: method as in GlaxoSmithKline (GSK) data on file. The note with it: MDCK cell line expressing human MDR1; ratio printed as x:1; ref GlaxoSmithKline (GSK) data on file; cited from earlier work.
Details of series [5]: method as in PMID 22932339. The note with it: healthy smokers, nicotine abstinence model of cognitive dysfunction; cited from earlier work.
Series [6] is described as follows: brain tissue binding by equilibrium dialysis, monkey. The format is in vitro ADME. To be noted: equilibrium dialysis 5 h. The method, then:
as §2

Another series relates to human recombinant m1AChR. Details: method as in earlier work. The note with it: cited from earlier work.
A further series concerns human m2-5AChR receptors. Details: method as in earlier work. To be noted: versus m1AChR; cited from earlier work.
The nature of series [7]: plasma concentration after single 5-mg oral dose in humans. The series is classed as in vivo. The note with it: human, read-out: GSK1034702 plasma concentration at start of post-dose PET scan. The method, then: Serial venous blood samples were obtained at 0, 1, 2, 3, 4 and 5.5 h after the administration of a single oral dose of 5 mg of GSK1034702, to estimate the time course of GSK1034702 plasma concentration. Plasma samples were analysed using a validated analytical method.

On the set-up of series [8]: method as in GlaxoSmithKline (GSK) data on file. The note with it: marmoset; ratio printed as x:1; ref GlaxoSmithKline (GSK) data on file; cited from earlier work.
Series [9] in a line: plasma protein binding by equilibrium dialysis, rat. The format is in vitro ADME. The note with it: equilibrium dialysis 5 h. The method, then:
as §2

Series [10] in a line: brain tissue binding by equilibrium dialysis, dog. The series is classed as in vitro ADME. To be noted: equilibrium dialysis 5 h. On the procedure: as §2
The nature of series [11]: brain tissue binding by equilibrium dialysis, rat. To be noted: equilibrium dialysis 5 h; for Brain tissue binding: 1 μg/mL, mean ± SD, n = 6; for fraction unbound at 5 h, 1 μg/mL: brain tissue, read-out: f ND (brain-free fraction). The series is classed as in vitro ADME. On the procedure:
as §2

Series [12] can be described thus: plasma protein binding by equilibrium dialysis, human. The series is classed as in vitro ADME. To be noted: equilibrium dialysis 5 h. The method, then: as §2
Series [13] in a line: parent fraction in arterial plasma by HPLC during PET scan. The format is in vivo. To be noted: human, baseline and post-dose sessions, 90 min. On the procedure: as §1
Where [14] appears, read: brain tissue, read-out: f ND (brain-free fraction).
The mark [15] stands for this setting: mean ± SD, n = 6, read-out: Plasma protein binding (converted).
Setting [16] is: read-out: f P (plasma-free fraction).

As a reminder, the efflux ratio is the permeability from basolateral to apical divided by that in the opposite direction, in the common usage. What is called pEC50 is −log10 of the EC50, conventionally taken in molar units. As for `Cc1cc(F)c2[nH]c(=O)n(C3CCN(C4CCOCC4)CC3)c2c1` [GSK1034702], the “f P Baseline” value in series [1] (Average of four subjects) turned out to be 0.45; in series [1] (Subject 1), 0.42; in [1] (Subject 2) it was 0.43; in series [1] (Subject 3), 0.43; in series [1] (Subject 4), 0.51. The “f P Post-dose” value is 0.44 in [1] (Average, after 5 mg oral); 0.41 in [1] (Subject 2, after 5 mg oral); 0.43 in series [1] (Subject 3, after 5 mg oral); 0.48 in [1] (Subject 4, after 5 mg oral). Moreover, the fraction unbound at 5 h, 1 μg/mL in series [2] (setting [14]) was 0.13; in series [3] (setting [15]) it was 0.583; in [3] (setting [16]), 0.58; in series [4] (setting [15]) it was 0.555; in [4] (setting [16]), 0.56; in series [6] (setting [14]), 0.17. In addition, the fraction unbound at 5 h, 1 μg/mL is 0.53 in series [9] (Rat (CD), read-out: f P (plasma-free fraction)); 0.528 in [9] (Rat (CD, Sprague Dawley), mean ± SD, n = 6, read-out: Plasma protein binding (converted)); 0.55 in [9] (Rat (LH), read-out: f P (plasma-free fraction)); 0.545 in [9] (Rat (LH, Lister hooded), mean ± SD, n = 6, read-out: Plasma protein binding (converted)); 0.18 in series [10] (setting [14]); 0.12 in [11] (Rat (CD)). For the same compound, the fraction unbound at 5 h, 1 μg/mL in series [11] (Rat (LH)) is 0.15; in series [12] (setting [15]), 0.442; in [12] (setting [16]) it was 0.44. Also, the Brain tissue binding is on record as 86.7 (±0.6) % in [2] (1 μg/mL, mean ± SD, n = 6); 83.2 (±1.1) % in series [6] (1 μg/mL, mean ± SD, n = 6); 81.8 (±1.8) % in series [10] (1 μg/mL, mean ± SD, n = 6); 87.7 (±0.5) % in [11] (Rat (CD)); 84.9 (±1.0) % in series [11] (Rat (LH)). Also, in the series on P-glycoprotein (PGP), the efflux ratio was 2.6. Besides, the “effect on episodic memory” value in series [5] is “improved episodic memory”. Besides, in the series with human recombinant m1AChR (allosteric agonist at human recombinant m1AChR), the pEC50 is 8.1 ± 0.1. The “intrinsic activity (IA)” value in the series with human recombinant m1AChR (human recombinant m1AChR) is reported as 0.78 ± 0.02. For the same compound, in the series with human m2-5AChR receptors, the “selectivity over human m2-5AChR receptors” value was 100 fold. In addition, the concentration at 3.2 h in series [7] (Subject 2, 3.2 hours post dose) was found to be 7.9 ng/mL. In series [7] (Subject 3, 4.4 hours post dose), the concentration at 4.4 h stood at 13.2 ng/mL. Further, the concentration at 3.8 h in [7] (Subject 4, 3.8 hours post dose) stood at 10.4 ng/mL. In series [8], the brain/blood ratio was 2.0.
For `[11CH3]c1cc(F)c2[nH]c(=O)n(C3CCN(C4CCOCC4)CC3)c2c1` [[^11C]GSK1034702], the “metabolism over the time course of the PET scan (parent fraction in plasma)” value in series [13] was “minimal metabolism”.
